In test [1] the target is T1, Human KIF18A (amino acid sequence 1-417) (Homo sapiens, UniProt Q8NI77).
T1 construct: purchased Viva Biotech (Shanghai) Ltd
T1 sequence (Q8NI77 1-417): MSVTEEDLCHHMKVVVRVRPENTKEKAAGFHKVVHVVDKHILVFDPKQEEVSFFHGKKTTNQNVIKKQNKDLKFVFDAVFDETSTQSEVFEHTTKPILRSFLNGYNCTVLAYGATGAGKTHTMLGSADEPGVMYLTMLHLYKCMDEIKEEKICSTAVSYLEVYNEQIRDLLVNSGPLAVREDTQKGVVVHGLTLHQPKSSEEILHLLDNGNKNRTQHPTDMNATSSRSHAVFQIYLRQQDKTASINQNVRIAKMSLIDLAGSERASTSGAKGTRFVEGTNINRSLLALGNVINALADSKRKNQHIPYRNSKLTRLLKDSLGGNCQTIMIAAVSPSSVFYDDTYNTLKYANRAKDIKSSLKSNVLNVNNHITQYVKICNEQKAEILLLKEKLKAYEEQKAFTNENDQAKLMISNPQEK
The experiment in a line: Enzymatic Activity Test (ADP-Glo, microtubule-stimulated KIF18A ATPase). Format: biochemical. Conditions: 60 µg/mL microtubules, 25 µM ATP, 2.5 nM KIF18A protein, 120 min at ambient temperature, chemiluminescence; read-out: KIF 18A IC50. As for the experimental part: Assay 1: Enzymatic Activity Test
Materials: Human KIF18A (amino acid sequence 1-417) was purchased from Viva Biotech (Shanghai) Ltd.; the ADP-Glo™ protein kinase kit was acquired from Promega, USA; tubulin was sourced from Cytoskeleton, USA; and the 384-well assay plate and Envision multifunctional microplate reader were obtained from PerkinElmer, USA.
Enzymatic Activity Test: The compound powder was dissolved in DMSO to prepare a stock solution of 10 mM. Then gradient dilution was performed for the compounds in the microplate to achieve a final concentration of 0-10 µM. Then, 2.5 µL each of tubulin, compound, ATP, and KIF18A protein were added to the microplate in sequence for reaction at ambient temperature for 120 min. The final concentrations in the enzyme reaction were 60 µg/mL for microtubules, 25 µM for ATP, and 2.5 nM for KIF18A protein. After the enzyme reaction, 10 µL of ADP-GLO reaction reagent was added to each well and incubated at room temperature for 30 min. After that, 20 µL of detection reagent was added to each well and incubated at room temperature for 30 min in the dark. Finally, chemiluminescence detection was performed using the PerkinElmer Envision.
(ADP-Glo first removes unused ATP, then detects ADP through luciferase.)

For a further test, the system named is OVCAR3 cells. The experiment in a line: Cell Proliferation Activity Test (CyQUANT Direct), OVCAR3. Format: cell-based. Particulars: compound 0-10 µM, 3 days, 0.2% DMSO, CyQUANT fluorescence, read-out: OVCAR-3 _IC50_nM. As for the experimental part:
Assay 2: Cell Proliferation Activity Test
Materials and Cells: OVCAR3 cells were purchased from Nanjing Cobioer Biosciences Co., Ltd. RPMI-1640 medium, fetal bovine serum, and the CyQUANT Direct Cell Proliferation Assay kit were purchased from Thermo Fisher Scientific, USA; 96-well cell culture plates were sourced from Coming, USA.
Cell Culture: OVCAR3 cells were cultured with RPMI-1640 medium containing 10% fetal bovine serum and incubated in a 5% CO2 incubator at 37°C. Only cells in the logarithmic growth phase could be used for the test.
Cell Proliferation Activity Test:
OVCAR3 cells were inoculated into a 96-well cell culture plate at 90 µL per well and incubated overnight in a 5% CO2 incubator at 37°C. The compound powder was dissolved in DMSO to prepare a stock solution of 10 mM. Then gradient dilution was performed for the compounds in the microplate to achieve a final concentration of 0-10 µM. 10 µL of cell culture medium containing compounds was added to each well to make the final DMSO content 0.2%. The cell plates were incubated in a 5% CO2 incubator at 37°C for 3 days. 100 µL of CyQUANT detection reagent was added to each well, reacted at 37°C for 60 min, and fluorescence detection was performed using the PerkinElmer Envision.

The test system of another test is HT29 cells. The experiment in a line: CyQuant Cell Proliferation Activity Test, HT29. In kind it is cell-based. Particulars: HT29 cells 2000 per well, initial concentration 3000 nM, 3-fold dilution, 3 days, 0.2% DMSO, read-out: HT29_IC50 _nM. As to the method:
Assay 3: CyQuant Cell Proliferation Activity Test
Materials and Cells: HT29 cells were purchased from Nanjing Cobioer Biosciences Co., Ltd.; RPMI-1640 medium, fetal bovine serum, Trypsin-EDTA (0.25%), 96-well plates, and CyQuant reagents were purchased from ThermoFisher (USA); DMSO was purchased from SIGMA (USA).
Cell Culture: HT29 cells were cultured with RPMI-1640 containing 10% fetal bovine serum under the condition of 37°C and 5% CO2. Only cells in the logarithmic growth phase could be used for the test.
Cell Proliferation Activity Test: CyQuant reagent was used to detect the proliferation inhibitory activity of compounds on HT29 cells. The cell density was adjusted, and 100 µL per well was inoculated into a 96-well plate (HT29 at 2000 cells per well), then incubated overnight at 37°C and 5% CO2. Add compounds of various target concentrations (initial concentration of 3000 nM, 3-fold dilution, 9 concentration gradients), and make the DMSO content 0.2%. The cell plate was incubated at 37°C in 5% CO2 for 3 days. CyQuant reagent was added and incubated for 1 h. The plates were read by Envision, and IC50 was calculated using XLFIT.

Read-outs that look alike come from different tables or passages of the source. A value given as a limit tells only on which side of the number the result lay.

Regarding `Cc1cc2nc(n1)N1CCCC(C=CCC3CCN(CC3)c3cc(NS(=O)(=O)CCO)cnc3C(=O)N2)C1` (stereo not drawn) [Example 2, (Z)-2-Hydroxy-N-(2^6-methyl-4-oxo-3-aza-2(2,4)-pyrimidin-5(2,3)-pyridin-1(1,3),6 (1,4)-dipiperidinylcyclononane-8-en-55-yl)ethane-1-sulfonamide], the IC50 came to 8 nM in test [1]; 74 nM in the test with OVCAR3 cells (Homo sapiens, OVCAR-3, 72 h); 178 nM in the test on HT29 cells (Homo sapiens, HT-29, 72 h).

With `O=C1Nc2cccc(c2)S(=O)(=O)NCCCCCC2CCN(CC2)c2cc(NS(=O)(=O)CCO)ccc21` [Example 13, N-(6,6-dioxo-3-oxo-6-thia-4,7-diaza-1(1,4)-piperidin-2(1,2),5(1,3)-diphenylheterocyclododecane-2^5-yl)-2-hydroxy-1-ethanesulfonamide], the IC50 was determined as 23 nM in test [1]; 77 nM in the test with OVCAR3 cells (Homo sapiens, OVCAR-3, 72 h); 136 nM in the test with HT29 cells (Homo sapiens, HT-29, 72 h).

On to `Cc1cc2nc(n1)N1CCC(F)(F)C(C=CCC3CCN(CC3)c3cc(NS(=O)(=O)CCO)ccc3C(=O)N2)C1` (stereo not drawn) [Example 18A, N-((1^3S,E)-1^4,1^4-difluoro-2^1-methyl-4-oxo-3-aza-2(2,4)-pyrimidin-1(1,3),6(1,4)-dipiperidin-5(1,2)-benzeneheterocyclononane-8-en-5^4-yl)-2-hydroxyethane-1-sulfonamide], for which the IC50 (in test [1]; with OVCAR3 cells; with HT29 cells) was over 3000 nM throughout.

On to `O=C1Nc2cccc(c2)S(=O)(=O)NCC=CC2CCN(CC2)c2cc(NS(=O)(=O)CCO)ccc21` [Example 15, (E)-N-(6,6-dioxo-3-oxo-6-thia-4,7-diaza-1(1,4)-piperidin-2(1,2),5(1,3)-diphenylheterocyclodec-9-en-2^5-yl)-2-hydroxy-1-ethanesulfonamide], for which the IC50 was 275 nM in test [1]; over 3000 nM in the test with OVCAR3 cells (Homo sapiens, OVCAR-3, 72 h); over 3000 nM in the test on HT29 cells (Homo sapiens, HT-29, 72 h).

Regarding `O=C1Nc2cccc(c2)S(=O)(=O)N2CCN(CCC3CCN(CC3)c3cc(NS(=O)(=O)CCO)ccc31)CC2` [Example 17, N-(6,6-dioxo-9-oxo-6-thia-8-aza-5(1,4)-piperazin-2(1,4)-piperidin-1(1,2),7(1,3)-diphenylheterocyclononane-1^3-yl)-2-hydroxyethane-1-sulfonamide], the IC50 in test [1] is 605 nM; in the test on OVCAR3 cells (Homo sapiens, OVCAR-3, 72 h) it was over 3000 nM; in the test on HT29 cells (Homo sapiens, HT-29, 72 h), over 3000 nM.

Turning to `Cc1cc2nc(n1)N1CCC(F)(F)C(C=CCC3CCN(CC3)c3cc(NS(=O)(=O)CCO)ccc3C(=O)N2)C1` (stereo not drawn) [Example 18D, N-((1^3R,Z)-1^4,1^4-difluoro-2^6-methyl-4-oxo-3-aza-2(2,4)-pyrimidin-1(1,3),6(1,4)-dipiperidin-5(1,2)-benzeneheterocyclononane-8-en-5^4-yl)-2-hydroxyethane-1-sulfon amide], the IC50 in test [1] came out at 345 nM; in the test on OVCAR3 cells, 458 nM; in the test with HT29 cells, 660 nM.

Consider `Cc1cc2nc(n1)N1CCCC(CCCC3CCN(CC3)c3cc(NS(=O)(=O)CCO)ccc3C(=O)N2)C1` (stereo not drawn) [Example 3A, 2-Hydroxy-N-((1^3R)-2^6-methyl-4-oxo-3-aza-2(2,4)-pyrimidin-1(1,3),6(1,4)-dipiperidin-5(1,2)-benzeneheterocyclononane-5^4-yl)ethane-1-sulfonamide], for which the IC50 worked out at 26 nM in test [1], 1610 nM in the test on OVCAR3 cells and 1320 nM in the test with HT29 cells.

`O=C1Nc2cccc(c2)S(=O)(=O)NCC=CCCC2CCN(CC2)c2cc(NS(=O)(=O)CCO)ccc21` [Example 12, N-(6,6-dioxo-3-oxo-6-thia-4,7-diaza-1(1,4)-piperidin-2(1,2),5(1,3)-diphenylheterocyclododec-9-ene-2^5-yl)-2-hydroxy-1-ethanesulfonamide]: the IC50 in test [1] stood at 28 nM; in the test with OVCAR3 cells (Homo sapiens, OVCAR-3, 72 h) it was 124 nM; with HT29 cells (Homo sapiens, HT-29, 72 h), 251 nM.

Regarding `Cc1cc2nc(n1)N1CCCC(C=CC3CCN(CC3)c3cc(NS(=O)(=O)CCO)ccc3C(=O)N2)C1` (stereo not drawn) [Example 4, 2-Hydroxy-N-(1^1-methyl-7-oxo-8-aza-1(2,4)-pyrimidin-2(1,3),5(4,1)-dipiperidin-6 (1,2)-benzeneheterocyclooct-3-en-6^5-yl)ethane-1-sulfonamide], the IC50 in test [1] is 736 nM; in the test with OVCAR3 cells (Homo sapiens, OVCAR-3, 72 h), 1660 nM; with HT29 cells (Homo sapiens, HT-29, 72 h) it was over 3000 nM.

Turning to `Cc1cc2nc(n1)N1CCCC(C=CCCC3CCN(CC3)c3cc(NS(=O)(=O)CCO)ccc3C(=O)N2)C1` (stereo not drawn) [Example 6, 2-Hydroxy-N-(2^1-methyl-4-oxo-3-aza-2(2,4)-pyrimidin-1(1,3),6(1,4)-dipiperidin-5 (1,2)-benzenecyclodec-9-en-5^4-yl)ethane-1-sulfonamide], the IC50 was 89 nM in test [1]; 52 nM in the test with OVCAR3 cells (Homo sapiens, OVCAR-3, 72 h); 64 nM in the test with HT29 cells (Homo sapiens, HT-29, 72 h).

Regarding `Cc1cc2nc(n1)N1CCC(F)(F)C(C=CCC3CCN(CC3)c3cc(NS(=O)(=O)CCO)ccc3C(=O)N2)C1` (stereo not drawn) [Example 18C, N-((1^3S,Z)-1^4,1^4-difluoro-2^6-methyl-4-oxo-3-aza-2(2,4)-pyrimidin-1(1,3),6(1,4)-dipiperidin-5(1,2)-benzeneheterocyclononane-8-en-5^4-yl)-2-hydroxyethane-1-sulfonamide], the IC50 in test [1] is 41 nM; in the test on OVCAR3 cells, 29 nM; in the test with HT29 cells, 31 nM.

As for `Cc1cc2nc(n1)N1CCCC(CCCCC3CCN(CC3)c3cc(NS(=O)(=O)CCO)ccc3C(=O)N2)C1` (stereo not drawn) [Example 7, 2-Hydroxy-N-(2^6-methyl-4-oxo-3-aza-2(2,4)-pyrimidin-1(1,3),6(1,4)-dipiperidin-5 (1,2)-benzenecyclodecane-5^4-yl)ethane-1-sulfonamide], the IC50 is 197 nM in test [1]; 242 nM in the test with OVCAR3 cells (Homo sapiens, OVCAR-3, 72 h); 255 nM with HT29 cells (Homo sapiens, HT-29, 72 h).

For the compound `Cc1cc2nc(n1)N1CCC(F)(F)C(CCC=C3CCN(CC3)c3cc(NS(=O)(=O)CCO)ccc3C(=O)N2)C1` (stereo not drawn) [Example 20, N-(1^4,1^4-difluoro-2^6-methyl-4-oxo-3-aza-2(2,4)-pyrimidin-1(1,3),6(1,4)-dipiperidin-5(1,2)-benzeneheterocyclononane-5^4-yl)-2-hydroxyethane-1-sulfonamide], the IC50 was 2920 nM in test [1]; over 3000 nM in the test on OVCAR3 cells (Homo sapiens, OVCAR-3, 72 h); over 3000 nM with HT29 cells (Homo sapiens, HT-29, 72 h).

For the compound `Cc1cc2nc(n1)N1CCC(F)(F)C(CCCC3CCN(CC3)c3cc(NS(=O)(=O)CCO)ccc3C(=O)N2)C1` (stereo not drawn) [Example 23A, N-((1^3S)-1^4,1^4-difluoro-2^6-methyl-4-oxo-3-aza-2(2,4)-pyrimidin-1(1,3),6(1,4)-dipiperidin-5(1,2)-benzeneheterocyclononane-5^4-yl)-2-hydroxyethane-1-sulfonamide], the IC50 stood at 522 nM in test [1], 662 nM with OVCAR3 cells and 688 nM in the test on HT29 cells.

The record behind these values is patent EP4755892A1, “KINESIN KIF18A INHIBITOR AND USE THEREOF” (Shanghai Apeiron Therapeutics Company Limited, priority 2023, dated 2025).
